Test system: MV-4-11 cells
Assay: Gene expression microarray analysis (Affymetrix PrimeView) and GSEA
Assay type: cell-based, human
Parameters: RFU PODN (11730768_x_at) / Fold change /veh PODN (11730768_x_at) / RFU LINC00158 (11744669_a_at) / Fold change /veh LINC00158 (11744669_a_at) / RFU DUSP10 (11751237_a_at) / Fold change /veh DUSP10 (11751237_a_at) / RFU ID3 (11757404_x_at) / Fold change /veh ID3 (11757404_x_at) / RFU PLEKHG5 (11737974_s_at) / Fold change /veh PLEKHG5 (11737974_s_at) / RFU LRRC4B (11730491_at) / Fold change /veh LRRC4B (11730491_at) / RFU GIMAP4 (11747438_a_at) / Fold change /veh GIMAP4 (11747438_a_at) / RFU KRT8 (11758183_x_at) / Fold change /veh KRT8 (11758183_x_at) / RFU CNN1 (11734310_a_at) / Fold change /veh CNN1 (11734310_a_at) / RFU VPS37D (11726825_at) / Fold change /veh VPS37D (11726825_at) / RFU C10orf10 (11716522_x_at) / Fold change /veh C10orf10 (11716522_x_at) / RFU KIR2DL2 /// KIR2DL4 /// KIR2DL5A /// KIR2DL5B /// KIR2DS1 /// KIR2DS2 /// KIR2DS3 /// KIR2DS4 /// KIR3DL3 /// KIR3DL3 /// KIR3DS1 (11738374_at) / Fold change /veh KIR2DL2 /// KIR2DL4 /// KIR2DL5A /// KIR2DL5B /// KIR2DS1 /// KIR2DS2 /// KIR2DS3 /// KIR2DS4 /// KIR3DL3 /// KIR3DL3 /// KIR3DS1 (11738374_at) / RFU C1QL1 (11718748_at) / Fold change /veh C1QL1 (11718748_at) / RFU TMPRSS4 (11747572_a_at) / Fold change /veh TMPRSS4 (11747572_a_at) / RFU HAMP (11756126_x_at) / Fold change /veh HAMP (11756126_x_at) / RFU RNFT2 (11725882_a_at) / Fold change /veh RNFT2 (11725882_a_at) / RFU NR4A2 (11747474_a_at) / Fold change /veh NR4A2 (11747474_a_at) / RFU ABCC12 (11746883_a_at) / Fold change /veh ABCC12 (11746883_a_at) / RFU TMEM136 (11760407_x_at) / Fold change /veh TMEM136 (11760407_x_at) / RFU CLDN22 /// WWC2 (11732394_at) / Fold change /veh CLDN22 /// WWC2 (11732394_at) / RFU HLA-DPB1 (11760878_x_at) / Fold change /veh HLA-DPB1 (11760878_x_at) / RFU SPINT1 (11716480_a_at) / Fold change /veh SPINT1 (11716480_a_at) / RFU GAP43 (11754022_s_at) / Fold change /veh GAP43 (11754022_s_at) / RFU A4GNT (11735810_at) / Fold change /veh A4GNT (11735810_at) / RFU PRB3 (11715151_x_at) / Fold change /veh PRB3 (11715151_x_at) / RFU TUBB4B (11761932_at) / Fold change /veh TUBB4B (11761932_at) / RFU CAPN14 (11732068_a_at) / Fold change /veh CAPN14 (11732068_a_at) / RFU TMCC2 (11721928_a_at) / Fold change /veh TMCC2 (11721928_a_at) / RFU IRGQ (11745062_a_at) / Fold change /veh IRGQ (11745062_a_at) / RFU FAM174B (11720279_a_at) / Fold change /veh FAM174B (11720279_a_at) / RFU TMPRSS4 (11748680_a_at) / Fold change /veh TMPRSS4 (11748680_a_at) / RFU FAM212B (11763350_a_at) / Fold change /veh FAM212B (11763350_a_at) / RFU PLEKHG5 (11743358_a_at) / Fold change /veh PLEKHG5 (11743358_a_at) / RFU ZSCAN30 (11745921_a_at) / Fold change /veh ZSCAN30 (11745921_a_at) / RFU CMKLR1 (11741424_a_at) / Fold change /veh CMKLR1 (11741424_a_at) / RFU LOC101060620 /// MAPK8IP1 (11723275_at) / Fold change /veh LOC101060620 /// MAPK8IP1 (11723275_at) / RFU SPTSSB (11747773_x_at) / Fold change /veh SPTSSB (11747773_x_at) / RFU PRSS12 (11739890_at) / Fold change /veh PRSS12 (11739890_at) / RFU BIN1 (11741810_x_at) / Fold change /veh BIN1 (11741810_x_at) / RFU WNT11 (11732464_a_at) / Fold change /veh WNT11 (11732464_a_at) / RFU C10orf10 (11716521_a_at) / Fold change /veh C10orf10 (11716521_a_at) / RFU C5orf56 (11738089_at) / Fold change /veh C5orf56 (11738089_at) / RFU CYB561 (11721691_x_at) / Fold change /veh CYB561 (11721691_x_at) / RFU ANKRD19P (11752326_a_at) / Fold change /veh ANKRD19P (11752326_a_at) / RFU OR2T12 /// OR2T33 /// OR2T8 (11738714_s_at) / Fold change /veh OR2T12 /// OR2T33 /// OR2T8 (11738714_s_at) / RFU VCAN (11748164_a_at) / Fold change /veh VCAN (11748164_a_at) / RFU JSRP1 (11732532_at) / Fold change /veh JSRP1 (11732532_at) / RFU KRTAP10-11 (11738290_x_at) / Fold change /veh KRTAP10-11 (11738290_x_at) / RFU MYO3A (11730013_a_at) / Fold change /veh MYO3A (11730013_a_at) / RFU EBF3 (11725865_a_at) / Fold change /veh EBF3 (11725865_a_at) / RFU CAMK2N1 (11719241_x_at) / Fold change /veh CAMK2N1 (11719241_x_at) / RFU C5orf56 (11738088_a_at) / Fold change /veh C5orf56 (11738088_a_at) / RFU OLFML3 (11715873_a_at) / Fold change /veh OLFML3 (11715873_a_at) / RFU LOC100653217 /// NTM (11731650_a_at) / Fold change /veh LOC100653217 /// NTM (11731650_a_at) / RFU MAPK11 (11762145_a_at) / Fold change /veh MAPK11 (11762145_a_at) / RFU FIZ1 (11724087_x_at) / Fold change /veh FIZ1 (11724087_x_at) / RFU OASL (11726364_x_at) / Fold change /veh OASL (11726364_x_at) / RFU SOX15 (11748057_x_at) / Fold change /veh SOX15 (11748057_x_at) / RFU CD79A (11719716_a_at) / Fold change /veh CD79A (11719716_a_at) / RFU HIST1H1D (11736915_at) / Fold change /veh HIST1H1D (11736915_at) / RFU CASKIN2 (11723855_a_at) / Fold change /veh CASKIN2 (11723855_a_at) / RFU LOC730098 (11760151_x_at) / Fold change /veh LOC730098 (11760151_x_at) / RFU OR4N2 (11742367_at) / Fold change /veh OR4N2 (11742367_at) / RFU PRRT2 (11749266_a_at) / Fold change /veh PRRT2 (11749266_a_at) / RFU SNX32 (11753110_a_at) / Fold change /veh SNX32 (11753110_a_at) / RFU CDHR5 (11726645_a_at) / Fold change /veh CDHR5 (11726645_a_at) / RFU RCAN1 (11760418_a_at) / Fold change /veh RCAN1 (11760418_a_at) / RFU FAM167A (11723789_a_at) / Fold change /veh FAM167A (11723789_a_at) / RFU FAM26E (11764081_at) / Fold change /veh FAM26E (11764081_at) / RFU ISYNA1 (11749810_s_at) / Fold change /veh ISYNA1 (11749810_s_at) / RFU ACY1 (11761880_at) / Fold change /veh ACY1 (11761880_at) / RFU 11764098_at / Fold change /veh 11764098_at / RFU SAMD14 (11745864_x_at) / Fold change /veh SAMD14 (11745864_x_at) / RFU NPB (11741838_a_at) / Fold change /veh NPB (11741838_a_at) / RFU TMPRSS6 (11731388_a_at) / Fold change /veh TMPRSS6 (11731388_a_at) / RFU KRTAP10-2 (11738614_at) / Fold change /veh KRTAP10-2 (11738614_at) / RFU ARHGAP8 /// PRR5-ARHGAP8 (11727945_x_at) / Fold change /veh ARHGAP8 /// PRR5-ARHGAP8 (11727945_x_at) / RFU KRTAP5-7 /// NADSYN1 (11734609_at) / Fold change /veh KRTAP5-7 /// NADSYN1 (11734609_at) / RFU RASL12 (11751679_a_at) / Fold change /veh RASL12 (11751679_a_at) / RFU CDKN2B (11736163_a_at) / Fold change /veh CDKN2B (11736163_a_at) / RFU PRF1 (11729649_at) / Fold change /veh PRF1 (11729649_at) / RFU, ZNF638 /// ZNF638-IT1 / Fold change vs veh, ZNF638 /// ZNF638-IT1 / RFU, PANK3 / Fold change vs veh, PANK3 / RFU, SH3YL1 / Fold change vs veh, SH3YL1 / RFU, ZEB2 / Fold change vs veh, ZEB2 / RFU, NRIP1 / Fold change vs veh, NRIP1 / RFU, PTTG1IP / Fold change vs veh, PTTG1IP / RFU, CAPN2 / Fold change vs veh, CAPN2 / RFU, MED14 / Fold change vs veh, MED14 / RFU, SNORA58 / Fold change vs veh, SNORA58 / RFU, C1orf63 / Fold change vs veh, C1orf63 / RFU, LRRFIP1 / Fold change vs veh, LRRFIP1 / RFU, NDUFAF7 / Fold change vs veh, NDUFAF7 / RFU, SLC12A2 / Fold change vs veh, SLC12A2 / RFU, IBTK / Fold change vs veh, IBTK / RFU, ESF1 / Fold change vs veh, ESF1 / Fold change vs veh, TMEM50B / RFU, TAOK1 / Fold change vs veh, TAOK1 / RFU, ACBD3 / Fold change vs veh, ACBD3 / RFU, TMA16 / Fold change vs veh, TMA16 / RFU, RWDD3 / Fold change vs veh, RWDD3 / RFU, BCAT1 / Fold change vs veh, BCAT1 / RFU, EDEM3 / Fold change vs veh, EDEM3 / RFU, TMEM33 / Fold change vs veh, TMEM33 / RFU, WDR75 / Fold change vs veh, WDR75 / RFU, AHCTF1 / Fold change vs veh, AHCTF1 / RFU, TFRC / Fold change vs veh, TFRC / RFU, ZDHHC17 / Fold change vs veh, ZDHHC17 / RFU, NOM1 / Fold change vs veh, NOM1 / RFU, ARL8B / Fold change vs veh, ARL8B / RFU, ZBTB11 / Fold change vs veh, ZBTB11 / RFU, TAMM41 / Fold change vs veh, TAMM41 / RFU, KIAA1704 /// LOC100996395 / Fold change vs veh, KIAA1704 /// LOC100996395 / RFU, ING1 / Fold change vs veh, ING1 / RFU, TRMT61B / Fold change vs veh, TRMT61B / RFU, FUBP3 / Fold change vs veh, FUBP3 / RFU, TP53 / Fold change vs veh, TP53 / RFU, TNKS2 / Fold change vs veh, TNKS2 / RFU, ZFP14 / Fold change vs veh, ZFP14 / RFU, ACTR2 / Fold change vs veh, ACTR2 / RFU, PPP3R1 / Fold change vs veh, PPP3R1 / RFU, PIK3R1 / Fold change vs veh, PIK3R1 / RFU, HNRNPA1 / Fold change vs veh, HNRNPA1 / RFU, RNF170 / Fold change vs veh, RNF170 / RFU, ZNF28 / Fold change vs veh, ZNF28 / RFU, RNGTT / Fold change vs veh, RNGTT / RFU, OGT / Fold change vs veh, OGT / RFU, BRD1 / Fold change vs veh, BRD1 / RFU, MARS / Fold change vs veh, MARS / RFU, ZNF655 / Fold change vs veh, ZNF655 / RFU, FAHD1 / Fold change vs veh, FAHD1 / RFU, BDP1 / Fold change vs veh, BDP1 / RFU, LRRCC1 / Fold change vs veh, LRRCC1 / RFU, ARID1A / Fold change vs veh, ARID1A / RFU, ZNF146 / Fold change vs veh, ZNF146 / RFU, ZNF330 / Fold change vs veh, ZNF330 / RFU, GPN3 / Fold change vs veh, GPN3 / RFU, C9orf123 / Fold change vs veh, C9orf123 / RFU, N4BP2L2 / Fold change vs veh, N4BP2L2 / RFU, ARFIP1 / Fold change vs veh, ARFIP1 / RFU, FAM179B / Fold change vs veh, FAM179B / RFU, BCL10 / Fold change vs veh, BCL10 / RFU, UHRF1BP1L / Fold change vs veh, UHRF1BP1L / RFU, BET1 / Fold change vs veh, BET1 / RFU, CNOT2 / Fold change vs veh, CNOT2 / RFU, ZNF268 / Fold change vs veh, ZNF268 / Fold change vs veh, ZNF507 / RFU, DGCR2 / Fold change vs veh, DGCR2 / RFU, WDSUB1 / Fold change vs veh, WDSUB1 / Fold change vs veh, HSP90B1 /// MIR3652 / RFU, ADSS / Fold change vs veh, ADSS / RFU, GK / Fold change vs veh, GK / RFU, ZNF148 / Fold change vs veh, ZNF148 / RFU, TAF9 / Fold change vs veh, TAF9 / RFU, SLC1A5 / Fold change vs veh, SLC1A5 / RFU, SLMO2 / Fold change vs veh, SLMO2 / RFU, ABCC4 / Fold change vs veh, ABCC4 / RFU, LOC101060439 /// RAP1B / Fold change vs veh, LOC101060439 /// RAP1B / RFU, RFX7 / Fold change vs veh, RFX7 / RFU, GTPBP10 / Fold change vs veh, GTPBP10 / RFU, CNEP1R1 / Fold change vs veh, CNEP1R1 / RFU, BIVM-ERCC5 /// ERCC5 / Fold change vs veh, BIVM-ERCC5 /// ERCC5 / RFU, ILF3 / Fold change vs veh, ILF3 / RFU 11762660_at / Fold change /veh 11762660_at / RFU VCAN (11757783_s_at) / Fold change /veh VCAN (11757783_s_at) / RFU DDX43 (11728927_at) / Fold change /veh DDX43 (11728927_at) / RFU KRT8 (11758188_x_at) / Fold change /veh KRT8 (11758188_x_at) / RFU NKD1 (11759106_at) / Fold change /veh NKD1 (11759106_at) / RFU SRD5A1 (11742802_a_at) / Fold change /veh SRD5A1 (11742802_a_at) / RFU TPSAB1 /// TPSB2 (11721975_s_at) / Fold change /veh TPSAB1 /// TPSB2 (11721975_s_at) / RFU GSTM3 (11746129_a_at) / Fold change /veh GSTM3 (11746129_a_at) / RFU IL23R (11737362_x_at) / Fold change /veh IL23R (11737362_x_at) / RFU TMEM51 (11727254_a_at) / Fold change /veh TMEM51 (11727254_a_at) / RFU PIWIL2 (11732686_x_at) / Fold change /veh PIWIL2 (11732686_x_at) / RFU ORM1 (11744905_x_at) / Fold change /veh ORM1 (11744905_x_at) / RFU CCDC152 (11743942_at) / Fold change /veh CCDC152 (11743942_at) / RFU ECM1 (11717891_a_at) / Fold change /veh ECM1 (11717891_a_at) / RFU IL23R (11748794_a_at) / Fold change /veh IL23R (11748794_a_at) / RFU TNFAIP8L3 (11732012_x_at) / Fold change /veh TNFAIP8L3 (11732012_x_at) / RFU MBOAT4 (11741988_at) / Fold change /veh MBOAT4 (11741988_at) / RFU 11764193_at / Fold change /veh 11764193_at / RFU TMEM53 (11763286_at) / Fold change /veh TMEM53 (11763286_at) / RFU MAGEB2 (11727129_at) / Fold change /veh MAGEB2 (11727129_at) / RFU TMEM200A (11744735_a_at) / Fold change /veh TMEM200A (11744735_a_at) / RFU CCDC152 (11751479_a_at) / Fold change /veh CCDC152 (11751479_a_at) / RFU FAM211A (11726209_a_at) / Fold change /veh FAM211A (11726209_a_at) / RFU RGS16 (11746705_a_at) / Fold change /veh RGS16 (11746705_a_at) / RFU VCAN (11755009_s_at) / Fold change /veh VCAN (11755009_s_at) / RFU RHOB (11743442_s_at) / Fold change /veh RHOB (11743442_s_at) / RFU RGS16 (11720943_a_at) / Fold change /veh RGS16 (11720943_a_at) / RFU RGS16 (11720944_at) / Fold change /veh RGS16 (11720944_at) / RFU, VPS4B / Fold change vs veh, VPS4B / RFU, CREB1 / Fold change vs veh, CREB1 / RFU, DNAJC13 / Fold change vs veh, DNAJC13 / RFU, GNAQ / Fold change vs veh, GNAQ / RFU, CDK5R1 / Fold change vs veh, CDK5R1 / RFU, ZRANB3 / Fold change vs veh, ZRANB3 / RFU, CUL4A / Fold change vs veh, CUL4A / RFU, CCNY / Fold change vs veh, CCNY / RFU, UFL1 / Fold change vs veh, UFL1 / RFU, COG3 / Fold change vs veh, COG3 / RFU, DIAPH2 / Fold change vs veh, DIAPH2 / RFU, SKA2 / Fold change vs veh, SKA2 / RFU, AFF3 / Fold change vs veh, AFF3 / RFU, LMF1 / Fold change vs veh, LMF1 / RFU, IPO11 / Fold change vs veh, IPO11 / RFU, DFFB / Fold change vs veh, DFFB / RFU, FOXP1 / Fold change vs veh, FOXP1 / RFU, CARD8 / Fold change vs veh, CARD8 / RFU, STRN3 / Fold change vs veh, STRN3 / RFU, ADK / Fold change vs veh, ADK / RFU, RASSF2 / Fold change vs veh, RASSF2 / RFU, WIPF1 / Fold change vs veh, WIPF1 / RFU, LARP1B / Fold change vs veh, LARP1B / RFU, RASA1 / Fold change vs veh, RASA1 / RFU, RB1 / Fold change vs veh, RB1 / RFU, PPFIA1 / Fold change vs veh, PPFIA1 / RFU, MAT2A / Fold change vs veh, MAT2A / RFU, CCT5 / Fold change vs veh, CCT5 / RFU, WDR92 / Fold change vs veh, WDR92 / RFU, CUX1 / Fold change vs veh, CUX1 / RFU, TTC7A / Fold change vs veh, TTC7A / RFU, TMEM135 / Fold change vs veh, TMEM135 / RFU, DEPTOR / Fold change vs veh, DEPTOR / RFU, CPM / Fold change vs veh, CPM / RFU, DNAJB6 / Fold change vs veh, DNAJB6 / RFU, CACNA2D3 / Fold change vs veh, CACNA2D3 / RFU, DTX4 / Fold change vs veh, DTX4 / RFU, TFCP2 / Fold change vs veh, TFCP2 / RFU, GMCL1 /// GMCL1P1 / Fold change vs veh, GMCL1 /// GMCL1P1 / RFU, AEBP2 / Fold change vs veh, AEBP2 / RFU, SNHG1 /// SNORD22 /// SNORD25 /// SNORD26 /// SNORD27 /// SNORD28 /// SNORD29 /// SNORD31 / Fold change vs veh, SNHG1 /// SNORD22 /// SNORD25 /// SNORD26 /// SNORD27 /// SNORD28 /// SNORD29 /// SNORD31 / Fold change (Aza/veh), C12orf56 (ProbeSet 11735607_a_at) / Fold change (ACY-1035/veh), C12orf56 (ProbeSet 11735607_a_at) / Fold change (Aza/veh), FGFR1OP (ProbeSet 11751329_s_at) / Fold change (ACY-1035/veh), FGFR1OP (ProbeSet 11751329_s_at) / Fold change (Aza/veh), VPS36 (ProbeSet 11739960_a_at) / Fold change (ACY-1035/veh), VPS36 (ProbeSet 11739960_a_at) / RFU SYPL1 (11715823_x_at) / Fold change /veh SYPL1 (11715823_x_at) / RFU IGFBP7 (11715501_s_at) / Fold change /veh IGFBP7 (11715501_s_at) / RFU REEP3 (11722064_at) / Fold change /veh REEP3 (11722064_at) / RFU IGLL1 (11728026_x_at) / Fold change /veh IGLL1 (11728026_x_at): dose or concentration left out as unconfirmed
Settings: MV-4-11 cells, 48 hours

Nc1ncn([C@@H]2O[C@H](CO)[C@@H](O)[C@H]2O)c(=O)n1 [azacitidine]
Fold change /veh KRTAP5-7 /// NADSYN1 (11734609_at): 1.00
